Results as given in ChEMBL document CHEMBL1157460, “Enhanced concentration-dependent cytotoxic effect of the dinuclear copper(II) complex of L-carnitine [Cu2(L-carnitine)2Cl2(H2O)2]Cl2, compared to L-carnitine or copper chloride dihydrate, in human leukemic cell lines” (2008).

Tests used:
HL-60 [1] = test: Cytotoxicity against human HL60 cells assessed as necrosis at 10 uM after 72 hrs by trypan blue staining; type: functional
HL-60 [2] = test: Cytotoxicity against human HL60 cells assessed as necrosis at 5 uM after 48 hrs by trypan blue staining; type: functional
K562 [3] = test: Cytotoxicity against human K562 cells assessed as necrosis at 2.5 uM after 48 hrs by trypan blue staining; type: functional
K562 [4] = test: Cytotoxicity against human K562 cells assessed as necrosis at 10 uM after 48 hrs by trypan blue staining; type: functional
K562 [5] = test: Cytotoxicity against human K562 cells assessed as necrosis at 5 uM after 72 hrs by trypan blue staining; type: functional
K562 [6] = test: Cytotoxicity against human K562 cells assessed as necrosis at 2.5 uM after 24 hrs by trypan blue staining; type: functional
HL-60 [7] = test: Cytotoxicity against human HL60 cells assessed as necrosis at 5 uM after 72 hrs by trypan blue staining; type: functional
HL-60 [8] = test: Cytotoxicity against human HL60 cells assessed as necrosis at 2.5 uM after 24 hrs by trypan blue staining; type: functional
HL-60 [9] = test: Cytotoxicity against human HL60 cells assessed as necrosis at 10 uM after 48 hrs by trypan blue staining; type: functional
K562 [10] = test: Cytotoxicity against human K562 cells assessed as cell viability at <=2.5 uM by MTT assay; type: functional, cell-based; details: TDE = time-dependent effect
HL-60 [11] = test: Cytotoxicity against human HL60 cells assessed as necrosis at 10 uM after 24 hrs by trypan blue staining; type: functional
HL-60 [12] = test: Cytotoxicity against human HL60 cells assessed as cell viability at <=2.5 uM by MTT assay; type: functional, cell-based; details: TDE = time-dependent effect
K562 [13] = test: Cytotoxicity against human K562 cells assessed as necrosis at 5 uM after 48 hrs by trypan blue staining; type: functional
HL-60 [14] = test: Cytotoxicity against human HL60 cells assessed as cell viability at >=5 uM after 24 hrs by MTT assay; type: functional, cell-based
K562 [15] = test: Cytotoxicity against human K562 cells assessed as necrosis at 5 uM after 24 hrs by trypan blue staining; type: functional
K562 [16] = test: Cytotoxicity against human K562 cells assessed as necrosis at 1.25 uM after 24 hrs by trypan blue staining; type: functional
K562 [17] = test: Cytotoxicity against human K562 cells assessed as necrosis at 10 uM after 72 hrs by trypan blue staining; type: functional
K562 [18] = test: Cytotoxicity against human K562 cells assessed as necrosis at 1.25 uM after 48 hrs by trypan blue staining; type: functional
K562 [19] = test: Cytotoxicity against human K562 cells assessed as necrosis at 1.25 uM after 72 hrs by trypan blue staining; type: functional
HL-60 [20] = test: Cytotoxicity against human HL60 cells assessed as necrosis at 2.5 uM after 48 hrs by trypan blue staining; type: functional
HL-60 [21] = test: Cytotoxicity against human HL60 cells assessed as necrosis at 1.25 uM after 24 hrs by trypan blue staining; type: functional
K562 [22] = test: Cytotoxicity against human K562 cells assessed as necrosis at 2.5 uM after 72 hrs by trypan blue staining; type: functional
K562 [23] = test: Cytotoxicity against human K562 cells assessed as cell viability at >=5 uM after 24 hrs by MTT assay; type: functional, cell-based
K562 [24] = test: Cytotoxicity against human K562 cells assessed as necrosis at 10 uM after 24 hrs by trypan blue staining; type: functional
HL-60 [25] = test: Cytotoxicity against human HL60 cells assessed as necrosis at 2.5 uM after 72 hrs by trypan blue staining; type: functional
HL-60 [26] = test: Cytotoxicity against human HL60 cells assessed as necrosis at 1.25 uM after 72 hrs by trypan blue staining; type: functional
HL-60 [27] = test: Cytotoxicity against human HL60 cells assessed as necrosis at 5 uM after 24 hrs by trypan blue staining; type: functional
HL-60 [28] = test: Cytotoxicity against human HL60 cells assessed as necrosis at 1.25 uM after 48 hrs by trypan blue staining; type: functional

| Compound | Activity (HL-60 [1]) [%] | Activity (HL-60 [2]) [%] | Activity (K562 [3]) [%] | Activity (K562 [4]) [%] | Activity (K562 [5]) [%] | Activity (K562 [6]) [%] | Activity (HL-60 [7]) [%] | Activity (HL-60 [8]) [%] | Activity (HL-60 [9]) [%] | Activity (K562 [10]) | Activity (HL-60 [11]) [%] | Activity (HL-60 [12]) | Activity (K562 [13]) [%] | Activity (K562 [15]) [%] | Activity (K562 [16]) [%] | Activity (K562 [17]) [%] | Activity (K562 [18]) [%] | Activity (K562 [19]) [%] | Activity (HL-60 [20]) [%] | Activity (HL-60 [21]) [%] | also measured |
| --- | --- | --- | --- | --- | --- | --- | --- | --- | --- | --- | --- | --- | --- | --- | --- | --- | --- | --- | --- | --- | --- |
| C[N+](C)(C)C[C@H](O)CC(=O)[O-] [LEVOCARNITINE] | 30 | 9.2 | 0 | 11.1 | 14.3 | 2.4 | 25.6 | 0 | 9.7 | tde | 1.7 | tde | 8.9 | 0 | 0 | 11.8 | 2.5 | 4.7 | 7.8 | 1.4 | Activity (HL-60 [14]; TDE = time-dependent effect): tde; Activity (K562 [22]): 4.7%; Activity (K562 [23]; TDE = time-dependent effect): tde; Activity (K562 [24]): 2.4%; Activity (HL-60 [25]): 28.4%; Activity (HL-60 [26]): 13.6%; Activity (HL-60 [27]): 1.8%; Activity (HL-60 [28]): 5.3% |
| CUPRIC CHLORIDE | 100 | 100 | 10.8 | 100 | 100 | 5.1 | 100 | 1.5 | 100 | tde | 100 | tde | 100 | 87.5 | 16.3 | 100 | 4.9 | 3 | 6.8 | 1.4 | Activity (HL-60 [14]): 0%; Activity (K562 [22]): 7.5%; Activity (K562 [23]): 0%; Activity (K562 [24]): 100%; Activity (HL-60 [25]): 22.6%; Activity (HL-60 [26]): 26.5%; Activity (HL-60 [27]): 86.2%; Activity (HL-60 [28]): 10.8% |
